± gives the standard deviation of the averaged measurements.
compound: CC(=O)O[C@H]1C(=O)[C@@]2(C)[C@H]([C@H](OC(=O)c3ccccc3)[C@]3(O)C[C@H](OC(=O)[C@H](O)[C@@H](NC(=O)c4ccccc4)c4ccccc4)C(C)=C1C3(C)C)[C@]1(OC(C)=O)CO[C@@H]1C[C@@H]2O [PACLITAXEL]; test: surviving fraction relative to DMSO-only wells; higher = less growth inhibition; conditions: 10 nM; exposure time: 5 days
Method in brief: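 Viability was determined by CellTiter-Glo luminescence, expressed as surviving fraction normalised to the median of DMSO-only wells. The cells were log-phase tumour cell lines seeded at 250–500 per well in 384-well plates and, after 24 hours, exposed continuously for five days to inhibitors at 0.5, 1, 5, 10, 50, 100, 500 and 1000 nM. Three screens per line were run, keeping only lines with replicate Pearson r >0.7 and median Z' >0.3.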

Test System	surviving fraction
SUM159 BREAST	0.179 ± 0.0045
MDAMB453 BREAST	0.303 ± 0.02
HMLE3 BREAST	0.0813 ± 0.0093
HCC70 BREAST	0.102 ± 0.019
VCAP PROSTATE	0.0997 ± 0.0076

same assay, conditions: 50 nM; exposure time: 5 days

Test System	surviving fraction
JURKAT HAEMATOPOIETIC AND LYMPHOID TISSUE	0.0297 ± 0.0011
SJSA1 BONE	0.135 ± 0.0021
YAMATO SYNOVIAL	0.377 ± 0.012
SCC003 HEADNECK	0.192 ± 0.01
NOS1 BONE	0.287 ± 0.024
BT549 BREAST	0.049 ± 0.0079
HT1080 SOFT TISSUE	0.0427 ± 0.0031
MDAMB157 BREAST	0.0473 ± 0.016
143B BONE	0.134 ± 0.0099
SIHA CERVIX	0.0897 ± 0.0031
SG32 HEADNECK	0.281 ± 0.062
SG31 HEADNECK	0.271 ± 0.037
VP229 BREAST	0.338 ± 0.013
RDES SOFT TISSUE	0.0673 ± 0.009
LM7 BONE	0.0847 ± 0.0068
HMT3552 BREAST	0.106
SNU475 LIVER	0.142 ± 0.014

Test System	surviving fraction
ASKA SYNOVIAL	0.262 ± 0.0055
CADOES1 SOFT TISSUE	0.38 ± 0.11
BT20 BREAST	0.0593 ± 0.0063
SUM44 BREAST	0.241 ± 0.019
CHLA90 AUTONOMIC GANGLIA	0.0937 ± 0.01
HCC78 LUNG	0.0717 ± 0.019
MFM223 BREAST	0.0873 ± 0.012
SG27 HEADNECK	0.888 ± 0.1
ZR751 BREAST	0.389 ± 0.042
MG63 BONE	0.0463 ± 0.0055
HS57T BREAST	0.0457 ± 0.0042
SUM159 BREAST	0.12 ± 0.0095
MDAMB453 BREAST	0.164 ± 0.014
HMLE3 BREAST	0.05 ± 0.007
HCC70 BREAST	0.099 ± 0.032
VCAP PROSTATE	0.077 ± 0.015

same assay, conditions: 100 nM; exposure time: 5 days

Test System	surviving fraction
JURKAT HAEMATOPOIETIC AND LYMPHOID TISSUE	0.0237 ± 0.00058
SJSA1 BONE	0.113 ± 0.0021
YAMATO SYNOVIAL	0.359 ± 0.021
SCC003 HEADNECK	0.196 ± 0.031
NOS1 BONE	0.252 ± 0.013
BT549 BREAST	0.041 ± 0.0027
HT1080 SOFT TISSUE	0.031 ± 0.0017
MDAMB157 BREAST	0.0687 ± 0.028
143B BONE	0.089 ± 0.013
SIHA CERVIX	0.0817 ± 0.004
SG32 HEADNECK	0.275 ± 0.02
SG31 HEADNECK	0.252 ± 0.033
VP229 BREAST	0.27 ± 0.019
RDES SOFT TISSUE	0.0537 ± 0.0058
LM7 BONE	0.075 ± 0.0044
HMT3552 BREAST	0.099
SNU475 LIVER	0.138 ± 0.0065

Test System	surviving fraction
ASKA SYNOVIAL	0.23 ± 0.011
CADOES1 SOFT TISSUE	0.188 ± 0.058
BT20 BREAST	0.058 ± 0.01
SUM44 BREAST	0.213 ± 0.0074
CHLA90 AUTONOMIC GANGLIA	0.076 ± 0.016
HCC78 LUNG	0.077 ± 0.011
MFM223 BREAST	0.0663 ± 0.003
SG27 HEADNECK	0.911 ± 0.097
ZR751 BREAST	0.437 ± 0.057
MG63 BONE	0.038 ± 0.0044
HS57T BREAST	0.0463 ± 0.0065
SUM159 BREAST	0.107 ± 0.0015
MDAMB453 BREAST	0.145 ± 0.016
HMLE3 BREAST	0.0377 ± 0.0042
HCC70 BREAST	0.0517 ± 0.014
VCAP PROSTATE	0.0693 ± 0.0068

same assay, conditions: 500 nM; exposure time: 5 days

Test System	surviving fraction
JURKAT HAEMATOPOIETIC AND LYMPHOID TISSUE	0.02 ± 0.001
SJSA1 BONE	0.107 ± 0.01
YAMATO SYNOVIAL	0.346 ± 0.0061
SCC003 HEADNECK	0.179 ± 0.021
NOS1 BONE	0.214 ± 0.039
BT549 BREAST	0.038 ± 0.0053
HT1080 SOFT TISSUE	0.0293 ± 0.0025
MDAMB157 BREAST	0.0473 ± 0.0098
143B BONE	0.0575 ± 0.0092
SIHA CERVIX	0.101 ± 0.0087
SG32 HEADNECK	0.244 ± 0.02
SG31 HEADNECK	0.267 ± 0.045
VP229 BREAST	0.279 ± 0.052
RDES SOFT TISSUE	0.056 ± 0.011
LM7 BONE	0.0723 ± 0.0015
HMT3552 BREAST	0.1
SNU475 LIVER	0.132 ± 0.029

Test System	surviving fraction
ASKA SYNOVIAL	0.199 ± 0.016
CADOES1 SOFT TISSUE	0.052 ± 0.0017
BT20 BREAST	0.0513 ± 0.0049
SUM44 BREAST	0.218 ± 0.0062
CHLA90 AUTONOMIC GANGLIA	0.0513 ± 0.0046
HCC78 LUNG	0.0673 ± 0.013
MFM223 BREAST	0.062 ± 0.0051
SG27 HEADNECK	1.01 ± 0.04
ZR751 BREAST	0.397 ± 0.021
MG63 BONE	0.0287 ± 0.0015
HS57T BREAST	0.0353 ± 0.0021
SUM159 BREAST	0.124 ± 0.0017
MDAMB453 BREAST	0.131 ± 0.015
HMLE3 BREAST	0.034 ± 0.0027
HCC70 BREAST	0.0543 ± 0.015
VCAP PROSTATE	0.0677 ± 0.022

same assay, conditions: 1000 nM; exposure time: 5 days

Test System	surviving fraction
JURKAT HAEMATOPOIETIC AND LYMPHOID TISSUE	0.0213 ± 0.00058
SJSA1 BONE	0.114 ± 0.017
YAMATO SYNOVIAL	0.426 ± 0.016
SCC003 HEADNECK	0.166 ± 0.018
NOS1 BONE	0.21 ± 0.024
BT549 BREAST	0.0463 ± 0.014
HT1080 SOFT TISSUE	0.0317 ± 0.00058
MDAMB157 BREAST	0.069 ± 0.011
143B BONE	0.0655 ± 0.0064
SIHA CERVIX	0.0943 ± 0.014
SG32 HEADNECK	0.218 ± 0.021
SG31 HEADNECK	0.273 ± 0.028
VP229 BREAST	0.293 ± 0.024
RDES SOFT TISSUE	0.0623 ± 0.004
LM7 BONE	0.0703 ± 0.004
HMT3552 BREAST	0.094
SNU475 LIVER	0.137 ± 0.008
ASKA SYNOVIAL	0.229 ± 0.01
CADOES1 SOFT TISSUE	0.0457 ± 0.0015
BT20 BREAST	0.0587 ± 0.011
SUM44 BREAST	0.202 ± 0.011
CHLA90 AUTONOMIC GANGLIA	0.0577 ± 0.009
HCC78 LUNG	0.1 ± 0.018

From the supplement of paper PMC6045584
